Biological target: T1, USP5 (Homo sapiens, UniProt P45974)
T1 sequence (P45974 1-858): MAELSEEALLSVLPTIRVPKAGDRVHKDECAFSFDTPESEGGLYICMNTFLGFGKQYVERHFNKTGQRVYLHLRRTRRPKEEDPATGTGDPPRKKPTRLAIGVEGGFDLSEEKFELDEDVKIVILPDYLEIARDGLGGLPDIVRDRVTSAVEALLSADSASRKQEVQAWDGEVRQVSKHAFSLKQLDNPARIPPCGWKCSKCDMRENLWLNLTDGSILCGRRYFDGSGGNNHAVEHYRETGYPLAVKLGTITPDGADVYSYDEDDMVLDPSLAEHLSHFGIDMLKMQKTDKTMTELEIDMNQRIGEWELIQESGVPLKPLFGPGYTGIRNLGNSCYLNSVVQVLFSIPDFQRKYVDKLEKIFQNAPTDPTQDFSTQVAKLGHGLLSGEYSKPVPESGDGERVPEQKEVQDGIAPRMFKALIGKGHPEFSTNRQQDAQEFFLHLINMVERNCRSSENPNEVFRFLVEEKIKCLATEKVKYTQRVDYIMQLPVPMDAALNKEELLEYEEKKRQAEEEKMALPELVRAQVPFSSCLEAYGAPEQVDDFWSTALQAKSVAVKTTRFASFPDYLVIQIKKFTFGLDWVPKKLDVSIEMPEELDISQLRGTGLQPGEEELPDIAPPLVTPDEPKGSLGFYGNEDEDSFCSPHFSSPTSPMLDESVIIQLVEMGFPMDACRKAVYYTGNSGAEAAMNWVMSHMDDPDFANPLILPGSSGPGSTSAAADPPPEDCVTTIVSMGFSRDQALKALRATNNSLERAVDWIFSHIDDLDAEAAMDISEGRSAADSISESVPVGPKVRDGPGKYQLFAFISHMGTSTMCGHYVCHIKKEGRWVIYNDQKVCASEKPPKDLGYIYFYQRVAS
Assay: USP5 activity assay (Ub-AMC substrate)
Type: biochemical
Settings: Ub-AMC 300 nM, USP5 300 pM
Protocol: USP5 was diluted in USP buffer (50 mM Tris HCl; 0.5 mM EDTA; 5 mM DTT; 0.01% Triton X-100; Bovine Serum Albumin 0.05 mg·ml^−1 pH 7.6). Compounds stocks (100 mM) were stored at −20° C. in DMSO. Compounds were tested at different concentrations: from 200 μM to 91 nM.
Reactions were performed as duplicates in Black 384 well plates (small volume microplates; Greiner; 10 μl final reaction volume). The substrate concentration for USP5 was 300 nM Ub-AMC (Boston Biochem). The concentrations of the enzyme (USP5) in specificity assays was 300 pM. The concentrations were determined in order to perform specificity assays under initial velocities at fixed substrate concentration. Compounds were pre-incubated with enzymes for 30 minutes at 25° C. Reactions were initiated by addition of substrate to the plates containing the enzymes (+/− compounds) diluted in assay buffer. Reactions were incubated for 60 minutes at 37° C. Reactions were stopped by adding acetic acid (100 mM final). Readings were performed on a Pherastar Fluorescent Reader (BMG). λ Emission 380 nm; λ Excitation=460 nm. Data (mean values +/− standard deviation) were analyzed as % of control (no compound) and plotted as percentage versus the Log of the compound concentration using GraphPad (Prism). Data were fitted to a sigmoidal model (variable slope).

IC50, > 200 µM:
O=C(NCc1cccc(CN2CCCC2)c1)c1ccc2c(Cl)c3c(nc2c1)CCCC3 [Example 18, 9-chloro-N-(3-(pyrrolidin-1-ylmethyl)benzyl)-5,6,7,8-tetrahydroacridine-3-carboxamide]
O=C(NCC1CCNCC1)c1ccc2c(Cl)c3c(nc2c1)CCCC3 [Example 24, 9-chloro-N-((piperidin-4-yl)methyl)-5,6,7,8-tetrahydroacridine-3-carboxamide]
CC1CCCCN1CCCNC(=O)c1ccc2c(Cl)c3c(nc2c1)CCCC3 (stereo not drawn) [Example 20, 9-chloro-N-(3-(2-methylpiperidin-1-yl)propyl)-516,7,8-tetrahydroacridine-3-carboxamide]
CN1CCCC1CCNC(=O)c1ccc2c(Cl)c3c(nc2c1)CCCC3 (stereo not drawn) [Example 17, 9-chloro-N-(2-(1-methylpyrrolidin-2-yl)ethyl)-5,6,7,8-tetrahydroacridino-3-carboxamide]
CN(C)c1ccc(CN2CCC(CNC(=O)c3ccc4c(Cl)c5c(nc4c3)CCCC5)CC2)cc1 [Example 23]
COc1ccc(CN2CCC(CNC(=O)c3ccc4c(Cl)c5c(nc4c3)CCCC5)CC2)cc1 [Example 22, 9-chloro-N-((1-(4-methoxybenzyl)piperidin-4-yl)methyl)-5,6,7,8-tetrahydroacridine-3-carboxamide]
O=C(NCC(CN1CCCC1)C(O)c1ccccc1)c1ccc2c(Cl)c3c(nc2c1)CCCC3 (stereo not drawn) [Example 25, 9-chloro-N-(3-hydroxy-3-phenyl-2-pyrrolidin-1-ylmethylpropyl)-5,6,7,8-tetrahydroacridine-3-carboxamide]
O=C(Nc1cccc(CN2CCCC2)c1)c1ccc2c(Cl)c3c(nc2c1)CCCC3 [Example 19, 9-chloro-N-(3-(pyrrolidin-1-ylmethyl)phenyl)-5.6,7,8-tetrahydroacridine-3-carboxamide]
O=C(NCc1ccc(CN2CCCC2)cc1)c1ccc2c(Cl)c3c(nc2c1)CCCC3 [Example 21, 9-chloro-N-(4-(pyrrolidin-1-ylmethyl)benzyl)-5,6,7,8-tetrahydroacridine-3-carboxamide]

— US9328093B2, “Selective inhibitors of ubiquitin specific protease 7, the pharmaceutical compositions thereof and their therapeutic applications” (HYBRIGENICS SA, priority 2010, dated 2016)
